The values below come from paper PMC4990478 (Nature chemical biology, 2016).

Each structure is given as a SMILES string. Where a SMILES comes first, the peptide text is derived from it. [ ]: non-standard residue; d: D form. The star is where a group is joined. ξ: configuration not given here. Aoe(9ξ) = N[C@@H](CCCCCC(=O)C1CO1)C(=O)O; AMC = Cc1cc(=O)oc2cc(N*)ccc12; dPip = O=C(O)[C@H]1CCCCN1

The subject of experiment [1] is maize HD1-B (a class I HDAC). The conditions noted are these: cited from earlier work.
Another experiment deals with HD1-A (a class II HDAC). The conditions noted are these: cited from earlier work.
In the next experiment the test system is HDAC6. The conditions noted are these: cited from earlier work.
A further experiment deals with HDAC1. The conditions noted are these: cited from earlier work.
For a further experiment, the target named is T1, zCD1 (Danio rerio, UniProt F8W4B7).
T1 sequence (F8W4B7 60-419): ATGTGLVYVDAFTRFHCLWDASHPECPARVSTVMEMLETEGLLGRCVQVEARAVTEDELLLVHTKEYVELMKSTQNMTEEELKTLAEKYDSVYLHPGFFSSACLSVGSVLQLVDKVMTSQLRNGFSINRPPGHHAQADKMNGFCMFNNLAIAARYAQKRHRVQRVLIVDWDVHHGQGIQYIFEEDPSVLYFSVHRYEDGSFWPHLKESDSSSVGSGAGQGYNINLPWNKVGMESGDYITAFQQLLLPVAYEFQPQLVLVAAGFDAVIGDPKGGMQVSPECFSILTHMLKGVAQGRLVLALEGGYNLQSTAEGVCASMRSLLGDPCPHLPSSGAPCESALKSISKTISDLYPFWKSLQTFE
The experiment can be described thus: Steady-state kinetics, fluorogenic substrates. In kind it is biochemical.

On to `C[C@@H]1NC(=O)[C@H]2CCCN2C(=O)[C@H](CCCCCC(=O)[C@@H]2CO2)NC(=O)[C@@H](C)NC1=O` [HC toxin, cyclo-(L-Ala-D-Ala-L-Aoe-D-Pro)], for which the mode of inhibition result in experiment [1] was “irreversible inhibition”; in the experiment on HD1-A (a class II HDAC), “reversible inhibition”.

For `O=C(CCCCC[C@@H]1NC(=O)[C@H]2CCCCN2C(=O)[C@H](Cc2ccccc2)NC(=O)[C@H](Cc2ccccc2)NC1=O)C1CO1` (some centres unmarked) [trapoxin] (cyclo(FF[dPip][Aoe(9ξ)])), the mode of inhibition result in the experiment with HDAC6 is “reversible inhibitor”; in the experiment on HDAC1 it was “potent irreversible inhibitor”.

As to `CC(=O)NCCCC[C@H](NC(=O)CNC(=O)[C@H](CCCNC(=N)N)NC(C)=O)C(=O)Nc1ccc2c(C)cc(=O)oc2c1` [Substrate 8, Ac-Arg-Gly-Lys(Ac)-AMC] (Ac-Arg-Gly-Lys(Ac)-{AMC}), the “kcat/KM reduced, zCD1 compared with zCD2” value on zCD1 was determined as 7 fold.
